The values that follow come from US5198542A, “DNA encoding a pitvitary adenylate cyclase activating protein and use thereof” (Takeda Chemical Industries, Inc., priority 1989, dated 1993).

A short description of assay [1]: hypotensive activity in male Wistar rats under nembutal anesthesia. The format is in vivo, rat. As for the experimental part:
Using male Wistar rats having a body weight of 350 g under nembutal anesthesia, the hypotensive activity was measured.

Another assay deals with adenylate cyclase. To be noted: rat pituicytes.

Read-outs that look alike come from different tables or passages of the source. Ends that are not written are not given here.

Turning to “PACAP38 NH2: PACAP38 NH2 synthesized on p-methyl BHA resin according to the amino acid sequence of PACAP38 (Example 5) (HSDGIFTDSYSRYRKQMAVKKYLAAVLGKRYKQRVKNK-NH2; UniProt P18509 132-169, looked up)”, the results for the hypotensive activity in assay [1] (dosage 0.3 n mole/kg), in assay [1] (dosage 1.0 n mole/kg) and in assay [1] (dosage 3.0 n mole/kg) were 3.2 ± 1.9 mm Hg, 17.4 ± 2.4 mm Hg and 29.8 ± 3.6 mm Hg, respectively.
Take “Syn.27p-NH2: synthesized 27-NH2, the 1st to 27th positions of mature PACAP38, formula (1")”: the “cAMP (M ± SEM)” value was 9.20 ± 0.20 p mol/ml with adenylate cyclase (peptide 10^-7 M); 9.20 ± 0.00 p mol/ml in the assay with adenylate cyclase (peptide 10^-8 M); 7.90 ± 0.30 p mol/ml in the assay on adenylate cyclase (peptide 10^-9 M); 4.00 ± 0.20 p mol/ml with adenylate cyclase (peptide 10^-10 M); 2.55 ± 0.15 p mol/ml with adenylate cyclase (peptide 10^-11 M); 2.05 ± 0.15 p mol/ml with adenylate cyclase (peptide 10^-12 M). Moreover, the hypotensive activity is 14.5 ± 3.1 mm Hg in assay [1] (dosage 0.3 n mole/kg), 51.9 ± 9.6 mm Hg in assay [1] (dosage 1.0 n mole/kg) and 4.1 mm Hg in assay [1] (dosage 3.0 n mole/kg).
